Data published in ChEMBL document CHEMBL1127274, “Evaluation of (2S,4S)/(2R,4R) and (2S,4R)/(2R,4S) 6,6-N,N-dimethyl-2-methyl-2-oxo-1,3-dioxa-4-hexadecyl-6,aza-2-phosphacyclooctane bromide as inhibitors for protein kinase C, carnitine octanoyltransferase, and carnitine palmitoyltransferase” (Bioorg Med Chem Lett, 1994).
pIC50: −log10 of the molar value.

Experiments:
[1] = target: T1, Peroxisomal carnitine O-octanoyltransferase (Homo sapiens, UniProt Q9UKG9); assay: Inhibitory potency against carnitine octanoyltransferase (COT); Range = 1300-4000 uM
T1 sequence (Q9UKG9 whole entry): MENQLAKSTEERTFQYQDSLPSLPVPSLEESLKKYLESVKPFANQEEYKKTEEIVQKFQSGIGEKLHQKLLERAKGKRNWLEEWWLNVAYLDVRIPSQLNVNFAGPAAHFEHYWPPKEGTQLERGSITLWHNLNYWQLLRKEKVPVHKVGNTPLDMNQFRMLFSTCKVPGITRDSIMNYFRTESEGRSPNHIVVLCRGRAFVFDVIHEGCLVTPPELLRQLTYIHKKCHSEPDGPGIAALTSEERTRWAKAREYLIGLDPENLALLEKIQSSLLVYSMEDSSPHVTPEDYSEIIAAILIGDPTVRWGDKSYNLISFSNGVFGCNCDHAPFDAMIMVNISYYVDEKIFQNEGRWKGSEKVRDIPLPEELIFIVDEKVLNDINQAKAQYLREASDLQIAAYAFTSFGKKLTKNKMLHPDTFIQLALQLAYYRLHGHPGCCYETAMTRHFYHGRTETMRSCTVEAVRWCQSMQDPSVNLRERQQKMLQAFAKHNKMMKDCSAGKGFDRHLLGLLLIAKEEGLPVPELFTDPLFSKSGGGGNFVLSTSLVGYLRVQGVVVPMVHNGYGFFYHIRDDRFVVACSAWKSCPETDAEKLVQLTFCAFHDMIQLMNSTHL

[2] = target: T2, Carnitine O-palmitoyltransferase 2, mitochondrial (Homo sapiens, UniProt P23786); assay: Inhibitory potency against Carnitine Palmitoyltransferase (CPT-II); Range = 32-235 uM
T2 sequence (P23786 whole entry): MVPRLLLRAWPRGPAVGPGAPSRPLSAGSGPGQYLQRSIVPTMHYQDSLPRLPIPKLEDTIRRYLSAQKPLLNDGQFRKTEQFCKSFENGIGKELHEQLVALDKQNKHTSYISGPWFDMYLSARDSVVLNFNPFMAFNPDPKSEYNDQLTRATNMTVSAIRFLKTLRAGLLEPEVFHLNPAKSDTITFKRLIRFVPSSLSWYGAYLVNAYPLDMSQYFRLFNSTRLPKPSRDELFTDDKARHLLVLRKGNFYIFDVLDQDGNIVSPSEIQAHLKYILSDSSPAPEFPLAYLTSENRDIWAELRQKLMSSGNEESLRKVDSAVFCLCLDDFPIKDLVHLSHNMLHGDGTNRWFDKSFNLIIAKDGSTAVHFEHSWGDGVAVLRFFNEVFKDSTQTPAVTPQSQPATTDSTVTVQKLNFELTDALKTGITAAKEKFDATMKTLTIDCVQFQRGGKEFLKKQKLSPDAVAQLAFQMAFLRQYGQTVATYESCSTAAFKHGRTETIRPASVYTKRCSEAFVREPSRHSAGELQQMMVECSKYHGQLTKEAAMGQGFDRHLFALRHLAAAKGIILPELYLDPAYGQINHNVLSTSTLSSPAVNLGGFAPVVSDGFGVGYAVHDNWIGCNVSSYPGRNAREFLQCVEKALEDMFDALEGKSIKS

CCCCCCCCCCCCCCCC[C@@]1(O)C[N+](C)(C)CCO1
pIC50 [1]: 2.40 | pIC50 [2]: 3.63
